# Source: patent publication US20060069132A1, “Azolecarboxamide herbicides” (priority 2004, published 2006)
# Tests used:
# barnyardgrass = assay: Test A pre-/postemergence herbicide test; format: in vivo, Echinochloa crus-galli
# Outline: (§1)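 Greenhouse injury scoring (0–100, complete control = 100) at approximately ten days follows simultaneous pre- and postemergence application. Soil received a directed spray after seeding; seedlings of 2–10 cm at the one- to two-leaf stage were sprayed to runoff.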
# large crabgrass [1] = assay: Test A pre-/postemergence herbicide test; format: in vivo, Digitaria sanguinalis
# Outline: as §1
# giant foxtail = assay: Test A pre-/postemergence herbicide test; format: in vivo, Setaria faberi
# Outline: as §1
# velvetleaf = assay: Test A pre-/postemergence herbicide test; format: in vivo, Abutilon theophrasti
# Outline: as §1
# corn = assay: Test C pre-/postemergence herbicide test; format: in vivo, Zea mays; details: for Corn plant response rating: 500 g ai/ha
# Outline: (§2)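 Pre/post spray; non-phytotoxic solvent + surfactant. Post-timing 1–4 leaves, 2–18 cm. Read-out: visual % control vs untreated, day 12–14, greenhouse.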
# large crabgrass [2] = assay: Test C pre-/postemergence herbicide test; format: in vivo, Digitaria sanguinalis; details: for Crabgrass, Large plant response rating: 500 g ai/ha
# Outline: as §2
# woolly cupgrass = assay: Test C pre-/postemergence herbicide test; format: in vivo, Eriochloa villosa; details: for Cupgrass, Woolly plant response rating: 500 g ai/ha
# Outline: as §2
# johnsongrass = assay: Test C pre-/postemergence herbicide test; format: in vivo, Sorghum halepense; details: for Johnsongrass plant response rating: 500 g ai/ha
# Outline: as §2
# kochia = assay: Test C pre-/postemergence herbicide test; format: in vivo, Kochia scoparia; details: for Kochia plant response rating: 500 g ai/ha
# Outline: as §2
# lambsquarters = assay: Test C pre-/postemergence herbicide test; format: in vivo, Chenopodium album; details: for Lambsquarters plant response rating: 500 g ai/ha
# Outline: as §2
# rice = assay: Test C flooded paddy test; format: in vivo, Oryza sativa; details: for Plant response rating, Rice: 500 g ai/ha, visual rating after 12 to 14 days
# Outline: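 Plants were grown to the 1- to 4-leaf stage (2–18 cm) and then treated postemergence, or grown to the 2-leaf stage for the flooded paddy test. They were held in a greenhouse for 12 to 14 days and then scored by eye against controls, where 0 is no effect and 100 is complete control.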
# ducksalad = assay: Test C flooded paddy test; format: in vivo, Heteranthera limosa; details: for Plant response rating, Ducksalad: 500 g ai/ha, visual rating after 12 to 14 days
# [3] = Postemergence, 500 g ai/ha, 0 to 100 scale, 0 no effect, 100 complete control
# [4] = Postemergence, 2000 g ai/ha, 0 to 100 scale, 0 no effect, 100 complete control
# [5] = Preemergence, 500 g ai/ha, visual rating, 0 to 100 scale (0 no effect, 100 complete control)
# [6] = Preemergence, 2000 g ai/ha, visual rating, 0 to 100 scale (0 no effect, 100 complete control)
# [7] = 125 g ai/ha, scale 0 (no effect) to 100 (complete control), visual, 12 to 14 days, preemergence
# [8] = 250 g ai/ha, scale 0 to 100 (0 no effect, 100 complete control), visual, 12 to 14 days, preemergence
# [9] = Preemergence, scale 0 to 100, 0 no effect, 100 complete control
# [10] = 62 g ai/ha, scale 0 to 100 (0 no effect, 100 complete control)
# [11] = 125 g ai/ha, scale of 0 to 100, 0 is no effect, 100 is complete control
# [12] = 250 g ai/ha, scale of 0 to 100, 0 is no effect, 100 is complete control
# [13] = scale 0 to 100 (0 no effect, 100 complete control)
# [14] = Postemergence, 250 g ai/ha, scale 0 to 100, 0 no effect, 100 complete control
# [15] = postemergence, 125 g ai/ha, scale 0 to 100
# [16] = postemergence, 62 g ai/ha, scale 0 to 100
smiles,measurement,setting,value
CC(=NO)c1cccc(NC(=O)c2cc(C(C)(C)C)nn2C)c1 [Compound 102],Barnyardgrass plant response rating,barnyardgrass; [3],55
same,"Plant response rating, Barnyardgrass",barnyardgrass; [4],75
same,Barnyardgrass plant response rating,barnyardgrass; [5],70
same,Barnyardgrass plant response rating,barnyardgrass; [6],85
same,"Crabgrass, Large plant response rating",large crabgrass [1]; [3],60
same,"Plant response rating, Crabgrass, Large",large crabgrass [1]; [4],80
same,"Crabgrass, Large plant response rating",large crabgrass [1]; [5],95
same,"Crabgrass, Large plant response rating",large crabgrass [1]; [6],100
same,"Foxtail, Giant plant response rating",giant foxtail; [3],45
same,"Plant response rating, Foxtail, Giant",giant foxtail; [4],65
same,"Foxtail, Giant plant response rating",giant foxtail; [5],60
same,"Foxtail, Giant plant response rating",giant foxtail; [6],85
same,Velvetleaf plant response rating,velvetleaf; [3],10
same,"Plant response rating, Velvetleaf",velvetleaf; [4],20
same,Velvetleaf plant response rating,velvetleaf; [5],30
same,Velvetleaf plant response rating,velvetleaf; [6],60
same,"Plant response rating (0 = no effect, 100 = complete control), Corn","corn; 62 g ai/ha, preemergence",0
same,"Plant response rating, Corn",corn; [7],0
same,"Plant response rating, Corn",corn; [8],10
same,Corn plant response rating,corn; [9],30
same,"Plant response rating (0 = no effect, 100 = complete control), Crabgrass, Large","large crabgrass [2]; 62 g ai/ha, preemergence",100
same,"Plant response rating, Crabgrass, Large",large crabgrass [2]; [7],100
same,"Plant response rating, Crabgrass, Large",large crabgrass [2]; [8],100
same,"Crabgrass, Large plant response rating",large crabgrass [2]; [9],100
same,"Plant response rating (0 = no effect, 100 = complete control), Cupgrass, Woolly","woolly cupgrass; 62 g ai/ha, preemergence",0
same,"Plant response rating, Cupgrass, Woolly",woolly cupgrass; [7],10
same,"Plant response rating, Cupgrass, Woolly",woolly cupgrass; [8],20
same,"Cupgrass, Woolly plant response rating",woolly cupgrass; [9],40
same,"Plant response rating (0 = no effect, 100 = complete control), Johnsongrass","johnsongrass; 62 g ai/ha, preemergence",50
same,"Plant response rating, Johnsongrass",johnsongrass; [7],80
same,Johnsongrass plant response rating,johnsongrass; [9],100
same,"Plant response rating (0 = no effect, 100 = complete control), Kochia","kochia; 62 g ai/ha, preemergence",0
same,"Plant response rating, Kochia",kochia; [7],30
same,Kochia plant response rating,kochia; [9],60
same,"Plant response rating (0 = no effect, 100 = complete control), Lambsquarters","lambsquarters; 62 g ai/ha, preemergence",0
same,"Plant response rating, Lambsquarters",lambsquarters; [7],70
same,Lambsquarters plant response rating,lambsquarters; [9],100
same,Rice plant response rating,rice; [10],20
same,Rice plant response rating,rice; [11],30
same,Rice plant response rating,rice; [12],40
same,"Plant response rating, Rice",rice; [13],60
same,Ducksalad plant response rating,ducksalad; [10],20
same,Ducksalad plant response rating,ducksalad; [11],80
same,Ducksalad plant response rating,ducksalad; [12],90
same,"Plant response rating, Ducksalad",ducksalad; [13],90
CCn1nc(C(C)(C)C)cc1C(=O)Nc1cccc(C(C)=NO)c1 [Compound 108],Barnyardgrass plant response rating,barnyardgrass; [3],85
same,"Plant response rating, Barnyardgrass",barnyardgrass; [4],100
same,Barnyardgrass plant response rating,barnyardgrass; [5],85
same,Barnyardgrass plant response rating,barnyardgrass; [6],90
same,"Crabgrass, Large plant response rating",large crabgrass [1]; [3],65
same,"Plant response rating, Crabgrass, Large",large crabgrass [1]; [4],85
same,"Crabgrass, Large plant response rating",large crabgrass [1]; [5],85
same,"Crabgrass, Large plant response rating",large crabgrass [1]; [6],100
same,"Foxtail, Giant plant response rating",giant foxtail; [3],90
same,"Plant response rating, Foxtail, Giant",giant foxtail; [4],100
same,"Foxtail, Giant plant response rating",giant foxtail; [5],95
same,"Foxtail, Giant plant response rating",giant foxtail; [6],100
same,Velvetleaf plant response rating,velvetleaf; [3],90
same,"Plant response rating, Velvetleaf",velvetleaf; [4],100
same,Velvetleaf plant response rating,velvetleaf; [5],55
same,Velvetleaf plant response rating,velvetleaf; [6],90
same,"Plant response rating (0 = no effect, 100 = complete control), Corn","corn; 62 g ai/ha, preemergence",30
same,"Plant response rating, Corn",corn; [7],40
same,"Plant response rating, Corn",corn; [8],50
same,Corn plant response rating,"corn; Postemergence, scale 0 to 100",60
same,"Plant response rating, Corn",corn; [14],50
same,Corn plant response rating,corn; [9],50
same,"Plant response rating, Corn",corn; [15],50
same,"Plant response rating, Corn",corn; [16],50
same,"Plant response rating (0 = no effect, 100 = complete control), Crabgrass, Large","large crabgrass [2]; 62 g ai/ha, preemergence",100
same,"Plant response rating, Crabgrass, Large",large crabgrass [2]; [7],100
same,"Plant response rating, Crabgrass, Large",large crabgrass [2]; [8],100
same,"Crabgrass, Large plant response rating","large crabgrass [2]; Postemergence, scale 0 to 100",100
same,"Plant response rating, Crabgrass, Large",large crabgrass [2]; [14],70
same,"Crabgrass, Large plant response rating",large crabgrass [2]; [9],100
same,"Plant response rating, Crabgrass, Large",large crabgrass [2]; [15],70
same,"Plant response rating, Crabgrass, Large",large crabgrass [2]; [16],10
same,"Plant response rating (0 = no effect, 100 = complete control), Cupgrass, Woolly","woolly cupgrass; 62 g ai/ha, preemergence",30
same,"Plant response rating, Cupgrass, Woolly",woolly cupgrass; [7],50
same,"Plant response rating, Cupgrass, Woolly",woolly cupgrass; [8],50
same,"Cupgrass, Woolly plant response rating","woolly cupgrass; Postemergence, scale 0 to 100",40
same,"Plant response rating, Cupgrass, Woolly",woolly cupgrass; [14],40
same,"Cupgrass, Woolly plant response rating",woolly cupgrass; [9],80
same,"Plant response rating, Cupgrass, Woolly",woolly cupgrass; [15],40
same,"Plant response rating, Cupgrass, Woolly",woolly cupgrass; [16],20
same,"Plant response rating (0 = no effect, 100 = complete control), Johnsongrass","johnsongrass; 62 g ai/ha, preemergence",60
same,"Plant response rating, Johnsongrass",johnsongrass; [7],100
same,Johnsongrass plant response rating,"johnsongrass; Postemergence, scale 0 to 100",90
same,"Plant response rating, Johnsongrass",johnsongrass; [14],70
same,Johnsongrass plant response rating,johnsongrass; [9],100
same,"Plant response rating, Johnsongrass",johnsongrass; [15],50
same,"Plant response rating, Johnsongrass",johnsongrass; [16],20
same,"Plant response rating (0 = no effect, 100 = complete control), Kochia","kochia; 62 g ai/ha, preemergence",100
same,"Plant response rating, Kochia",kochia; [7],100
same,Kochia plant response rating,"kochia; Postemergence, scale 0 to 100",90
same,"Plant response rating, Kochia",kochia; [14],90
same,Kochia plant response rating,kochia; [9],100
same,"Plant response rating, Kochia",kochia; [15],80
same,"Plant response rating, Kochia",kochia; [16],60
same,"Plant response rating (0 = no effect, 100 = complete control), Lambsquarters","lambsquarters; 62 g ai/ha, preemergence",100
same,"Plant response rating, Lambsquarters",lambsquarters; [7],100
same,Lambsquarters plant response rating,"lambsquarters; Postemergence, scale 0 to 100",100
same,"Plant response rating, Lambsquarters",lambsquarters; [14],100
same,Lambsquarters plant response rating,lambsquarters; [9],100
same,"Plant response rating, Lambsquarters",lambsquarters; [15],100
same,"Plant response rating, Lambsquarters",lambsquarters; [16],70
same,Rice plant response rating,rice; [10],0
same,Rice plant response rating,rice; [11],0
same,Rice plant response rating,rice; [12],20
same,"Plant response rating, Rice",rice; [13],50
same,Ducksalad plant response rating,ducksalad; [10],50
same,Ducksalad plant response rating,ducksalad; [11],70
same,Ducksalad plant response rating,ducksalad; [12],80
same,"Plant response rating, Ducksalad",ducksalad; [13],90
CC(=NO)c1cccc(NC(=O)c2cc(C(C)(C)C)nn2CC(F)(F)F)c1 [Compound 112],Barnyardgrass plant response rating,barnyardgrass; [3],35
same,"Plant response rating, Barnyardgrass",barnyardgrass; [4],45
same,Barnyardgrass plant response rating,barnyardgrass; [5],25
same,Barnyardgrass plant response rating,barnyardgrass; [6],50
same,"Crabgrass, Large plant response rating",large crabgrass [1]; [3],25
same,"Plant response rating, Crabgrass, Large",large crabgrass [1]; [4],30
same,"Crabgrass, Large plant response rating",large crabgrass [1]; [5],45
same,"Crabgrass, Large plant response rating",large crabgrass [1]; [6],55
same,"Foxtail, Giant plant response rating",giant foxtail; [3],20
same,"Plant response rating, Foxtail, Giant",giant foxtail; [4],35
same,"Foxtail, Giant plant response rating",giant foxtail; [5],25
same,"Foxtail, Giant plant response rating",giant foxtail; [6],50
same,Velvetleaf plant response rating,velvetleaf; [3],25
same,"Plant response rating, Velvetleaf",velvetleaf; [4],35
same,Velvetleaf plant response rating,velvetleaf; [5],25
same,Velvetleaf plant response rating,velvetleaf; [6],50
same,Corn plant response rating,"corn; Postemergence, scale 0 to 100",30
same,"Plant response rating, Corn",corn; [15],20
same,"Plant response rating, Corn",corn; [16],10
same,"Crabgrass, Large plant response rating","large crabgrass [2]; Postemergence, scale 0 to 100",30
same,"Plant response rating, Crabgrass, Large",large crabgrass [2]; [14],30
same,"Plant response rating, Crabgrass, Large",large crabgrass [2]; [15],10
same,"Plant response rating, Crabgrass, Large",large crabgrass [2]; [16],0
same,"Cupgrass, Woolly plant response rating","woolly cupgrass; Postemergence, scale 0 to 100",70
same,"Plant response rating, Cupgrass, Woolly",woolly cupgrass; [14],60
same,"Plant response rating, Cupgrass, Woolly",woolly cupgrass; [15],30
same,"Plant response rating, Cupgrass, Woolly",woolly cupgrass; [16],0
same,Johnsongrass plant response rating,"johnsongrass; Postemergence, scale 0 to 100",60
same,"Plant response rating, Johnsongrass",johnsongrass; [14],50
same,"Plant response rating, Johnsongrass",johnsongrass; [15],20
same,"Plant response rating, Johnsongrass",johnsongrass; [16],20
same,Kochia plant response rating,"kochia; Postemergence, scale 0 to 100",80
same,"Plant response rating, Kochia",kochia; [15],20
same,"Plant response rating, Kochia",kochia; [16],0
same,Lambsquarters plant response rating,"lambsquarters; Postemergence, scale 0 to 100",100
same,"Plant response rating, Lambsquarters",lambsquarters; [14],100
same,"Plant response rating, Lambsquarters",lambsquarters; [15],20
same,"Plant response rating, Lambsquarters",lambsquarters; [16],20
same,Rice plant response rating,rice; [10],0
same,Rice plant response rating,rice; [11],0
same,Rice plant response rating,rice; [12],10
same,"Plant response rating, Rice",rice; [13],30
same,Ducksalad plant response rating,ducksalad; [10],0
same,Ducksalad plant response rating,ducksalad; [11],0
same,Ducksalad plant response rating,ducksalad; [12],0
same,"Plant response rating, Ducksalad",ducksalad; [13],100
